Laboratory results published in patent publication US20250115598A1 (Anaxis Pharma Pty Ltd, priority 2021, published 2025).

Key:
human MLKL (full length) = human MLKL (full length) (Homo sapiens (Human), UniProt Q8NB16); assay: KINOMEscan binding assay, human MLKL (full length); settings: KINOMEscan, Table 21; read-out: Human MLKL (full-length) (KD)
Protocol: Binding affinity of the test compounds for human MLKL (full length), mouse MLKL (full length), human RIPK1 and human RIPK3 was determined using the KINOMEscan™ technology developed by DiscoverX (USA; http://www.discoverx.com). The assay was conducted according to manufacturer instructions.
Kinase assays. For most assays, kinase-tagged T7 phage strains were grown in parallel in 24-well blocks in an E. coli host derived from the BL21 strain. E. coli were grown to log-phase and infected with T7 phage from a frozen stock (multiplicity of infection=0.4) and incubated with shaking at 32° C. until lysis (90-150 minutes). The lysates were centrifuged (6,000×g) and filtered (0.2 μm) to remove cell debris. The remaining kinases were produced in HEK-293 cells and subsequently tagged with DNA for qPCR detection. […] The liganded beads were blocked with excess biotin and washed with blocking buffer (SeaBlock (Pierce), 1% BSA, 0.05% Tween 20, 1 mM DTT) to remove unbound ligand and to reduce non-specific phage binding. […] All reactions were performed in polypropylene 384-well plates in a final volume of 20 μL. […] The kinase concentration in the eluates was measured by qPCR.
An 11-point 3-fold serial dilution of each test compound was prepared in 100% DMSO at 100× final test concentration and subsequently diluted to 1× in the assay (final DMSO concentration=1%). Most Kos were determined using a compound top concentration=30,000 nM.
KD for each test compound was calculated with a standard dose-response curve using the Hill equation (equation (1)): […]
The Hill Slope was set to −1.
Curves were fitted using a non-linear least square fit with the Levenberg-Marquardt algorithm.

human RIPK1 = human RIPK1 (Homo sapiens (Human), UniProt Q13546); assay: KINOMEscan binding assay, human RIPK1; settings: Table 21
Chain of human RIPK1 (Q13546 whole entry): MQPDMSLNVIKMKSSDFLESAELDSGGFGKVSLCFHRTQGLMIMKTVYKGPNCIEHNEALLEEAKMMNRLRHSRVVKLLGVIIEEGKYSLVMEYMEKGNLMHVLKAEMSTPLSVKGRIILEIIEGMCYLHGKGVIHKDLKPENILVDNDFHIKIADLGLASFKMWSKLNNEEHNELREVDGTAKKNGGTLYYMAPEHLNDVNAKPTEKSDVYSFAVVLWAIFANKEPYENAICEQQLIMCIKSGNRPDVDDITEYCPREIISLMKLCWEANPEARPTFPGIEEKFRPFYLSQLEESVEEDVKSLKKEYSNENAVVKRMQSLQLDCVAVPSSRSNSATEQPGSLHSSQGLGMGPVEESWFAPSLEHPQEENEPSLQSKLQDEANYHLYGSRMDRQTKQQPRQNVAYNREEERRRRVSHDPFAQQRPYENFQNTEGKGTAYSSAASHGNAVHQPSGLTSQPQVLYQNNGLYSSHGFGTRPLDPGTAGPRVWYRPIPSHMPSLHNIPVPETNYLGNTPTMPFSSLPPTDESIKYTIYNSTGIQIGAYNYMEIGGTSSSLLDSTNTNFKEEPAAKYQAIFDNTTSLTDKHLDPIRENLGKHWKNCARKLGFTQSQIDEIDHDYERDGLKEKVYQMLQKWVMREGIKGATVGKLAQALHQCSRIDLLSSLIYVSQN
Summary of the method: (§1)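 Assay principle: test compound competes with immobilized bead ligand for kinase; kinase retained, then eluted, is counted by qPCR. Conditions were 1% DMSO final with 11 compound concentrations in 3-fold steps, 30,000 nM top for most. The Hill equation with slope −1 gave Kd.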

human RIPK3 = human RIPK3 (Homo sapiens (Human), UniProt Q9Y572); assay: KINOMEscan binding assay, human RIPK3; settings: Table 21
Chain of human RIPK3 (Q9Y572 whole entry): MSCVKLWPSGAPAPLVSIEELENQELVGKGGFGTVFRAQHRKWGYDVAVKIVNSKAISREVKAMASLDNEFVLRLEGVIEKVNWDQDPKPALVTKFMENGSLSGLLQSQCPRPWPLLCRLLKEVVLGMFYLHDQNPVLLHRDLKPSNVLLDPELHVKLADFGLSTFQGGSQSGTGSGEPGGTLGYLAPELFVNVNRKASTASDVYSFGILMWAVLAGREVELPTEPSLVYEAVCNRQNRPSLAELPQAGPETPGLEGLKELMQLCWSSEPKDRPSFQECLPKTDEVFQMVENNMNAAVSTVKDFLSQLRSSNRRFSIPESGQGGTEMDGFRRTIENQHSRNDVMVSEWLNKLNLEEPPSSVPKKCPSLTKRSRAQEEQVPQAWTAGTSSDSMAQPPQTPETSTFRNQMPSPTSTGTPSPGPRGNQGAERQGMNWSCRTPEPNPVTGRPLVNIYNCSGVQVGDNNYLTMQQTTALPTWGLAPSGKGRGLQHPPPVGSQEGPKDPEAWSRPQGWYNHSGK
Summary of the method: as §1

Chain of human MLKL (full length) (Q8NB16 whole entry): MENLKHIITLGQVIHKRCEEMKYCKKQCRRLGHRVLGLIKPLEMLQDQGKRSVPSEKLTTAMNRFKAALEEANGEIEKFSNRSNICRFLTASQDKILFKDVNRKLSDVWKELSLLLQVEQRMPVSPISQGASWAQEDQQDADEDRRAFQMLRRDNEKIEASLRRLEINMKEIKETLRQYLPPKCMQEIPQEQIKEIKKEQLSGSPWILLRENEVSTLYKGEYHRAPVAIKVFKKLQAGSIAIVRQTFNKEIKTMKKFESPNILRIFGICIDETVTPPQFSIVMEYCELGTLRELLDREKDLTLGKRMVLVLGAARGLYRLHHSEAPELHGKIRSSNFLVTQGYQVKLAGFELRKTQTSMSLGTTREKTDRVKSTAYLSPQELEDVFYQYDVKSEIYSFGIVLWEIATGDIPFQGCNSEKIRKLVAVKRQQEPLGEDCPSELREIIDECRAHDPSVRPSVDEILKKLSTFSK

Structure (SMILES): C[C@H](Oc1cc(-c2coc3c(-c4cnn(CCO)c4)cnc(N)c23)ccc1NS(=O)(=O)C(F)F)c1ccc(F)cc1 [Compound 9, (S)-N-(4-(4-amino-7-(1-(2-hydroxyethyl)-1H-pyrazol-4-yl)furo[3,2-c]pyridin-3-yl)-2-(1-(4-fluoro-phenyl)eth-oxy)phenyl)-1,1-difluoromethane-sulfonamide]
- Kd (human MLKL (full length)): < 0.001 µM
- Kd (human RIPK1): > 10 µM
- Kd (human RIPK3): > 10 µM

Structure (SMILES): C[C@H](Oc1cc(-c2nn(C)c3c(-c4cnc(N5CCN(C)CC5)nc4)cnc(N)c23)ccc1NS(=O)(=O)C(F)F)c1ccc(F)cc1 [Compound 105, (S)-N-(4-(4-amino-1-methyl-7-(2-(4-methylpiperazin-1-yl)pyrimidin-5-yl)-1H-pyrazolo[4,3-c]pyridin-3-yl)-2-(1-(4-fluorophenyl)ethoxy)phenyl)-1,1-difluoromethanesulfonamide]
- Kd (human MLKL (full length)): < 0.001 µM
- Kd (human RIPK1): > 10 µM
- Kd (human RIPK3): > 10 µM

Structure (SMILES): C[C@H](Oc1cc(-c2nn(C)c3c(-c4cnn(C5CCN(C)C5)c4)cnc(N)c23)ccc1NS(=O)(=O)C(F)F)c1ccc(F)cc1 (stereo partly drawn) [Compound 93, N-(4-(4-amino-1-methyl-7-(1-(1-methylpyrrolidin-3-yl)-1H-pyrazol-4-yl)-1H-pyrazolo[4,3-c]pyridin-3-yl)-2-((S)-1-(4-fluorophenyl)ethoxy)phenyl)-1,1-difluoromethanesulfonamide]
- Kd (human MLKL (full length)): < 0.001 µM
- Kd (human RIPK1): > 10 µM
- Kd (human RIPK3): > 10 µM

Structure (SMILES): C[C@H](Oc1cc(-c2nn(C)c3c(-c4ccncc4)cnc(N)c23)ccc1NS(=O)(=O)C(F)F)c1ccc(F)cc1 [Compound 18, (S)-N-(4-(4-amino-1-methyl-7-(pyridin-4-yl)-1H-pyrazolo[4,3-c]pyridin-3-yl)-2-(1-(4-fluorophenyl)ethoxy)phenyl)-1,1-difluoromethanesulfonamide]
- Kd (human MLKL (full length)): < 0.001 µM
- Kd (human RIPK1): > 10 µM
- Kd (human RIPK3): > 10 µM

Structure (SMILES): C[C@H](Oc1cc(-c2nn(C)c3ccnc(N)c23)ccc1NS(=O)(=O)C(F)F)c1ccc(F)cc1 [Compound 17, N-(4-{4-amino-1-methyl-1H-pyrazolo[4,3-c]pyridin-3-yl}-2-[(1S)-1-(4-fluorophenyl)ethoxy]phenyl)-1,1-difluoromethanesulfonamide]
- Kd (human MLKL (full length)): < 0.001 µM
- Kd (human RIPK1): > 10 µM
- Kd (human RIPK3): > 10 µM

Structure (SMILES): C[C@H](Oc1cc(-c2nn(C)c3c(-c4cnn(C5CNC5)c4)cnc(N)c23)ccc1NS(=O)(=O)C(F)F)c1ccc(F)cc1 [Compound 94, (S)-N-(4-(4-amino-7-(1-(azetidin-3-yl)-1H-pyrazol-4-yl)-1-methyl-1H-pyrazolo[4,3-c]pyridin-3-yl)-2-(1-(4-fluorophenyl)ethoxy)phenyl)-1,1-difluoromethane-sulfonamide]
- Kd (human MLKL (full length)): < 0.001 µM
- Kd (human RIPK1): > 10 µM
- Kd (human RIPK3): > 10 µM

Structure (SMILES): C[C@H](Oc1cc(-c2nn(C)c3c(-c4cnn(C5CCOC5)c4)cnc(N)c23)ccc1NS(=O)(=O)C(F)F)c1ccc(F)cc1 (stereo partly drawn) [Compound 41, N-(4-(4-amino-1-methyl-7-(1-(tetrahydrofuran-3-yl)-1H-pyrazol-4-yl)-1H-pyrazolo[4,3-c]pyridin-3-yl)-2-((S)-1-(4-fluorophenyl)ethoxy)phenyl)-1,1-difluoromethanesulfonamide]
- Kd (human MLKL (full length)): < 0.001 µM
- Kd (human RIPK1): > 10 µM
- Kd (human RIPK3): > 10 µM

Structure (SMILES): Cn1cc(-c2cnc(N)c3c(-c4ccc(NS(=O)(=O)C(F)F)c(OCc5ccc(F)cc5)c4)nn(C)c23)cn1 [Compound 16, N-(4-(4-amino-1-methyl-7-(1-methyl-1H-pyrazol-4-yl)-1H-pyrazolo[4,3-c]pyridin-3-yl)-2-((4-fluoro-benzyl)oxy)phenyl)-1,1-difluoromethane-sulfonamide]
- Kd (human MLKL (full length)): < 0.001 µM
- Kd (human RIPK1): > 10 µM
- Kd (human RIPK3): > 10 µM

Structure (SMILES): Nc1n[nH]c2ncnc(-c3ccc(NS(=O)(=O)C(F)F)c(OCc4ccc(F)cc4)c3)c12 [Compound 69, N-(4-(3-Amino-1H-pyrazolo[3,4-d]pyrimidin-4-yl)-2-((4-fluorophenyl)methoxy)phenyl)-1,1-difluoromethanesulfonamide]
- Kd (human MLKL (full length)): < 0.001 µM
- Kd (human RIPK1): > 10 µM
- Kd (human RIPK3): > 10 µM

Structure (SMILES): CC(C)Oc1cc(-c2nn(C)c3c(-c4cnn(C5CCOCC5)c4)cnc(N)c23)ccc1NS(=O)(=O)C(F)F [Compound 144, N-(4-(4-amino-1-methyl-7-(1-(tetrahydro-2H-pyran-4-yl)-1H-pyrazol-4-yl)-1H-pyrazolo[4,3-c]pyridin-3-yl)-2-isopropoxy-phenyl)-1,1-difluoromethane-sulfonamide]
- Kd (human MLKL (full length)): < 0.001 µM
- Kd (human RIPK1): > 10 µM
- Kd (human RIPK3): > 10 µM

Structure (SMILES): C[C@H](Oc1cc(-c2nn(C)c3c(-c4cnn(C(C)(C)CO)c4)cnc(N)c23)ccc1NS(=O)(=O)C(F)F)c1ccc(F)cc1 [Compound 97, (S)-N-(4-(4-amino-7-(1-(1-hydroxy-2-methylpropan-2-yl)-1H-pyrazol-4-yl)-1-methyl-1H-pyrazolo[4,3-c]pyridin-3-yl)-2-(1-(4-fluorophenyl)ethoxy)phenyl)-1,1-difluoromethanesulfonamide]
- Kd (human MLKL (full length)): < 0.001 µM
- Kd (human RIPK1): > 10 µM
- Kd (human RIPK3): > 10 µM

Structure (SMILES): CC(C)n1cc(-c2cnc(N)c3c(-c4ccc(NS(=O)(=O)C(F)F)c(O[C@@H](C)c5ccc(F)cc5)c4)nn(C)c23)cn1 [Compound 31, (S)-N-(4-(4-amino-7-(1-isopropyl-1H-pyrazol-4-yl)-1-methyl-1H-pyrazolo[4,3-c]pyridin-3-yl)-2-(1-(4-fluorophenyl)ethoxy)phenyl)-1,1-difluoromethanesulfonamide]
- Kd (human MLKL (full length)): < 0.001 µM
- Kd (human RIPK1): > 10 µM
- Kd (human RIPK3): > 10 µM

Structure (SMILES): CCS(=O)(=O)Nc1ccc(-c2coc3c(-c4cnn(CCO)c4)cnc(N)c23)cc1OCc1ccc(F)cc1 [Compound 4, N-(4-(4-amino-7-(1-(2-hydroxyethyl)-1H-pyrazol-4-yl)furo[3,2-c]pyridin-3-yl)-2-((4-fluorobenzyl)oxy)phe-nyl)ethanesulfonamide]
- Kd (human RIPK1): > 10 µM
- Kd (human RIPK3): > 10 µM

Structure (SMILES): CC(C)n1nc(-c2ccc(NS(=O)(=O)C(F)F)c(O[C@@H](C)c3ccc(F)cc3)c2)c2c(N)ncc(-c3cnn(C4CCOCC4)c3)c21 [Compound 51, (S)-N-(4-(4-amino-1-isopropyl-7-(1-(tetrahydro-2H-pyran-4-yl)-1H-pyrazol-4-yl)-1H-pyrazolo[4,3-c]pyridin-3-yl)-2-(1-(4-fluorophenyl)ethoxy)phenyl)-1,1-difluoromethane-sulfonamide]
- Kd (human RIPK1): > 10 µM
- Kd (human RIPK3): > 10 µM

Structure (SMILES): C[C@H](Oc1cc(-c2nn(C)c3c(-c4ccc(C(F)(F)F)nc4)cnc(N)c23)ccc1NS(=O)(=O)C(F)F)c1ccc(F)cc1 [Compound 117, (S)-N-(4-(4-amino-1-methyl-7-(6-(trifluoromethyl)pyridin-3-yl)-1H-pyrazolo[4,3-c]pyridin-3-yl)-2-(1-(4-fluorophenyl)ethoxy)phenyl)-1,1-difluoromethanesulfonamide]
- Kd (human RIPK1): > 10 µM
- Kd (human RIPK3): > 10 µM

Structure (SMILES): C[C@H](Oc1cc(-c2nn(C)c3c(-c4cnc(N(C)C)nc4)cnc(N)c23)ccc1NS(=O)(=O)C(F)F)c1ccc(F)cc1 [Compound 106, (S)-N-(4-(4-amino-7-(2-(dimethylamino)pyrimidin-5-yl)-1-methyl-1H-pyrazolo[4,3-c]pyridin-3-yl)-2-(1-(4-fluorophenyl)ethoxy)phenyl)-1,1-difluoromethanesulfonamide]
- Kd (human RIPK1): > 10 µM
- Kd (human RIPK3): > 10 µM

Structure (SMILES): COC[C@H](Oc1cc(-c2nn(C)c3c(-c4cnn(C5CCOCC5)c4)cnc(N)c23)ccc1NS(=O)(=O)C(F)F)c1ccc(F)cc1 [Compound 111, (R)—N-(4-(4-amino-1-methyl-7-(1-(tetrahydro-2H-pyran-4-yl)-1H-pyrazol-4-yl)-1H-pyrazolo[4,3-c]pyridin-3-yl)-2-(1-(4-fluorophenyl)-2-methoxyethoxy)phenyl)-1,1-difluoromethanesulfonamide]
- Kd (human RIPK1): > 10 µM
- Kd (human RIPK3): > 10 µM

Structure (SMILES): C[C@H](Oc1cc(-c2nn(C)c3c(C4=CCOCC4)cnc(N)c23)ccc1NS(=O)(=O)C(F)F)c1ccc(F)cc1 [Compound 43, (S)-N-(4-(4-amino-7-(3,6-dihydro-2H-pyran-4-yl)-1-methyl-1H-pyrazolo[4,3-c]pyridin-3-yl)-2-(1-(4-fluorophenyl)ethoxy)phenyl)-1,1-difluoromethanesulfonamide]
- Kd (human RIPK1): > 10 µM
- Kd (human RIPK3): > 10 µM

Structure (SMILES): C[C@H](Oc1cc(-c2nn(C)c3c(-c4cnn5c4CNCC5)cnc(N)c23)ccc1NS(=O)(=O)C(F)F)c1ccc(F)cc1 [Compound 90, (S)—N-(4-(4-amino-1-methyl-7-(4,5,6,7-tetrahydropyrazolo[1,5-a]pyrazin-3-yl)-1H-pyrazolo[4,3-c]pyridin-3-yl)-2-(1-(4-fluorophenyl)ethoxy)phenyl)-1,1-difluoromethanesulfonamide]
- Kd (human RIPK1): > 10 µM
- Kd (human RIPK3): > 10 µM
